In general, inhibition refers to the drop in the measured response relative to a control, in per cent. What is called IC50 is the concentration needed to halve the response being measured. The low end stands for greater potency in that assay, the high end for weaker potency in that assay.

Where a name gives a salt, the structure may show the parent alone.

This note sets out measurements from PMC6814258 (Pharmaceutical research, 2019).

Common to all, as to assay type: cell-based
One experiment has as its target human KV7.1 (Homo sapiens, UniProt P51787). As to the kind of experiment: KV7.1 86Rb+ efflux HTS. Particulars: for inhibition at 10 µM: CHO, read-out: Average percent inhibition at 10 μM (KCNQ1); for Average percent inhibition at 10 μM (KCNQ1): n=2, CHO cells, 86Rb+ efflux, normalized to 10 μM chromanol 293B control.
The target of experiment [1] is T1, Nav1.8 (Homo sapiens, UniProt Q9Y5Y9). Nature of the experiment: Nav1.8 FLIPR HTS. Particulars: HEK293, read-out: Average percent inhibition at 10 μM (Nav1.8).
Experiment [2] has as its target T1, Nav1.8. As to the kind of experiment: Nav1.8 automated patch clamp.

Sequence of human KV7.1 (P51787 whole entry): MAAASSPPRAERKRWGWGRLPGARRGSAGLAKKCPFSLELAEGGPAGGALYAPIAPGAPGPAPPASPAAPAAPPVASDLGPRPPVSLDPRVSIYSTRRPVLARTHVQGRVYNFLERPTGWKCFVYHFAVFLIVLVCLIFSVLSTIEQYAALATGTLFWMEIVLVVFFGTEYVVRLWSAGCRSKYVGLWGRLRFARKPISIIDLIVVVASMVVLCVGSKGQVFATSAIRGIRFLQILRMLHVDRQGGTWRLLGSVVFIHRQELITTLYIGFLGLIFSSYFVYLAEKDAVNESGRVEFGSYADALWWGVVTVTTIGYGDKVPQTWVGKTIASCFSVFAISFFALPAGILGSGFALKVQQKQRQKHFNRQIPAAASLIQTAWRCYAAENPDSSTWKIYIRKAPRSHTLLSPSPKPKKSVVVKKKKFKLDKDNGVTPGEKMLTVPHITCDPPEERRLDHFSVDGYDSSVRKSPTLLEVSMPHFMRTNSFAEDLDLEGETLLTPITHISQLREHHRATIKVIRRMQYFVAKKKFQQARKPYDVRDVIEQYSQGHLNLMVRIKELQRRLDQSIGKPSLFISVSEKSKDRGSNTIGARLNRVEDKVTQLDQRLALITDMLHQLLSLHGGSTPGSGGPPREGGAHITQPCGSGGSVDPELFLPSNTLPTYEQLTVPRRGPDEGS
T1 sequence (Q9Y5Y9 whole entry): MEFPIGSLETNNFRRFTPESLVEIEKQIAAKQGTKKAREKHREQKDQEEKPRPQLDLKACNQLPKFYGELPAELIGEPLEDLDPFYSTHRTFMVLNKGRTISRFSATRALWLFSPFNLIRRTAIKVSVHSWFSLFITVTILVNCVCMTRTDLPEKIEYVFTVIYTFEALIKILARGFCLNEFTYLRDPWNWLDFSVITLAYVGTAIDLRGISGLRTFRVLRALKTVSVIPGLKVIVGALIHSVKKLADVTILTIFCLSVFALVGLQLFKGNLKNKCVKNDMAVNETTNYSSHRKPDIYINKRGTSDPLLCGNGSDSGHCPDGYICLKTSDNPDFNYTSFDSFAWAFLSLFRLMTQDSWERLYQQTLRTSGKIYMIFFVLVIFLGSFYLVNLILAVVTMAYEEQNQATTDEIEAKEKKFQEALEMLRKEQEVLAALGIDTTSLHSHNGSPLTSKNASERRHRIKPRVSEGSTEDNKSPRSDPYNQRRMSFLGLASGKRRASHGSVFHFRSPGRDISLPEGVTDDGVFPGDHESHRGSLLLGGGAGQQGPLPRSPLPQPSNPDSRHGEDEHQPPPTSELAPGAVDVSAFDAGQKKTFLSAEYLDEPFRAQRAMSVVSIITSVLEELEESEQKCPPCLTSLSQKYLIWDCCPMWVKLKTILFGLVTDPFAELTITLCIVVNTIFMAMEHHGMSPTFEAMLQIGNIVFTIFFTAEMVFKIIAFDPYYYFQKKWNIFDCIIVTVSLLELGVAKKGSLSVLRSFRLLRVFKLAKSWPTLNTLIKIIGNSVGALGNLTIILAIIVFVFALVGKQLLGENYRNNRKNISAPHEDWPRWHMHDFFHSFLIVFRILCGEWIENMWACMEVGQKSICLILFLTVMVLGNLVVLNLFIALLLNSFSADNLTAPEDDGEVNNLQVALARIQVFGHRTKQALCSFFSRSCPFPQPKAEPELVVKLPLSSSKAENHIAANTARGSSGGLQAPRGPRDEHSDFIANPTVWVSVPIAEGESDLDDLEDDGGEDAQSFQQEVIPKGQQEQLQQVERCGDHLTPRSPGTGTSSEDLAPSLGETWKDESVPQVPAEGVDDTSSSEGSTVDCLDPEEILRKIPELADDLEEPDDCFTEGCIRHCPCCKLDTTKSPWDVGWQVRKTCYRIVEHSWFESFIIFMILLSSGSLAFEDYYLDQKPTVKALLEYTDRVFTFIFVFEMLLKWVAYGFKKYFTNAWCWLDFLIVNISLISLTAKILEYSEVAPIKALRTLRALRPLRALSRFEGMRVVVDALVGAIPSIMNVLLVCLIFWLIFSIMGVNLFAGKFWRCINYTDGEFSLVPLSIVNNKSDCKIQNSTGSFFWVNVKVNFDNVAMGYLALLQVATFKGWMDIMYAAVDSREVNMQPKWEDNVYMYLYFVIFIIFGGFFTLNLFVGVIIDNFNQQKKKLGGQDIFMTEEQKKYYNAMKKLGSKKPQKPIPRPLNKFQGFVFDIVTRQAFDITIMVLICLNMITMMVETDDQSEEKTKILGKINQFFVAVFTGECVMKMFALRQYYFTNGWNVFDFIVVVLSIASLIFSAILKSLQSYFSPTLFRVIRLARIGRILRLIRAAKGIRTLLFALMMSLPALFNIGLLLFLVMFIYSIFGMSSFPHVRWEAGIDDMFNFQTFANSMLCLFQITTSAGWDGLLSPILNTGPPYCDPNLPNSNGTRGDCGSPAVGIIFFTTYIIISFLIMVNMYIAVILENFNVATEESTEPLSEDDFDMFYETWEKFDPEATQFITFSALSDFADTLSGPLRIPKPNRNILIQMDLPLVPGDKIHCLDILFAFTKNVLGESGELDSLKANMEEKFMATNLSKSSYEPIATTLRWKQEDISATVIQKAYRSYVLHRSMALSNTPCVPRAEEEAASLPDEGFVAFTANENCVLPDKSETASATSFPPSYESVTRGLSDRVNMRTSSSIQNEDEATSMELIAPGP

On to `CCOC(=O)[C@H](CCc1ccccc1)N[C@H]1CCc2ccccc2N(CC(=O)O)C1=O` [Benazepril hydrochloride], for which, at human KV7.1, the inhibition at 10 µM worked out at 44.8%.

On to `COC(=O)C1=C(C)NC(C)=C(C(=O)OC2CCCN(Cc3ccccc3)C2)C1c1cccc([N+](=O)[O-])c1` (stereo not drawn) [Benidipine hydrochloride], for which the inhibition at 10 µM at human KV7.1 stood at 51.1%; at Nav1.8 [1], 113%. This compound also showed a 50% inhibitory concentration (IC50) against Nav1.8 [2] of 4.4 µM.

As for `CCc1oc2ccccc2c1C(=O)c1cc(Br)c(O)c(Br)c1` [Benzbromarone], at human KV7.1, the inhibition at 10 µM came to 58.1%.

`Clc1ccc(CCC(Cn2ccnc2)Sc2c(Cl)cccc2Cl)cc1` (stereo not drawn) [Butoconazole nitrate]: the inhibition at 10 µM on human KV7.1 was determined as 67%.

Consider `Clc1ccccc1C(c1ccccc1)(c1ccccc1)n1ccnc1` [Clotrimazole], for which the inhibition at 10 µM at human KV7.1 came out at 46.3%.

In the case of `CN1CCN(C(c2ccccc2)c2ccccc2)CC1.Cl` [Cyclizine hydrochloride], the “Average percent inhibition at 10 μM (KCNQ1)” value (“Average percent inhibition” below) at human KV7.1 is on record as 45.9%.

As for `NS(=O)(=O)c1cc2c(cc1Cl)NC(CC1CCCC1)NS2(=O)=O` (stereo not drawn) [Cyclopenthiazide], the inhibition at 10 µM on human KV7.1 worked out at 68.3%.

For `CC(=O)O[C@H]1CC[C@@]2(C)C(=CC[C@@H]3[C@@H]2CC[C@]2(C)C(=O)CC[C@@H]32)C1` [Dehydroisoandosterone 3-acetate], the “Average percent inhibition” value at human KV7.1 is reported as 52.9%.

Regarding `C/C=C(/C(=C/C)c1ccc(O)cc1)c1ccc(O)cc1` [Dienestrol], the inhibition at 10 µM at human KV7.1 came out at 61.3%.

Regarding `CC/C(=C(/CC)c1ccc(O)cc1)c1ccc(O)cc1` [Diethylstilbestrol], the inhibition at 10 µM at human KV7.1 turned out to be 90.2%; on Nav1.8 [1], 99.5%.

`Clc1ccc(COC(Cn2ccnc2)c2ccc(Cl)cc2Cl)cc1` (stereo not drawn) [Econazole nitrate]: at human KV7.1, the inhibition at 10 µM amounted to 85.6%.

Regarding `O=C1Nc2ccc(Cl)cc2[C@@](C#CC2CC2)(C(F)(F)F)O1` [Efavirenz], on human KV7.1, the inhibition at 10 µM came to 80.3%.

Turning to `C[C@]12CC[C@H]3C(=CCc4cc(O)ccc43)[C@@H]1CCC2=O` [Equilin], the inhibition at 10 µM on human KV7.1 came to 64.6%.

As for `C[C@]12CC[C@@H]3c4ccc(O)cc4CC[C@H]3[C@@H]1CC[C@@H]2O` [Estradiol-17 beta], at human KV7.1, the “Average percent inhibition” value came out at 56.3%.

With `CCOc1ccc(Cc2nccc3cc(OCC)c(OCC)cc23)cc1OCC` [Ethaverine hydrochloride], the inhibition at 10 µM on human KV7.1 amounted to 86.9%.

Turning to `C#C[C@]1(O)CC[C@H]2[C@@H]3CCc4cc(O)ccc4[C@H]3CC[C@@]21C` [Ethinylestradiol], on human KV7.1, the inhibition at 10 µM stood at 75.8%.

With `C#C[C@]1(OC(C)=O)CC[C@H]2[C@@H]3CCC4=C[C@@H](OC(C)=O)CC[C@@H]4[C@H]3CC[C@@]21C` [Ethynodiol diacetate], the inhibition at 10 µM at human KV7.1 is 88%.

In the case of `O=C(OCCOCCO)c1ccccc1Nc1cccc(C(F)(F)F)c1` [Etofenamate], the inhibition at 10 µM on human KV7.1 came to 51.8%.

For the compound `CC(C)c1c(CN(C)C(C)Cc2ccccc2)n(C)n(-c2ccccc2)c1=O` (stereo not drawn) [Famprofazone], the inhibition at 10 µM on human KV7.1 stood at 50.7%.

As to `CC(C)OC(=O)C(C)(C)Oc1ccc(C(=O)c2ccc(Cl)cc2)cc1` [Fenofibrate], at human KV7.1, the inhibition at 10 µM was 64%.

Consider `CC[C@H](c1ccc(O)cc1)[C@@H](CC)c1ccc(O)cc1` [Hexestrol], for which the inhibition at 10 µM at human KV7.1 is 82%; on Nav1.8 [1], 91.6%.

Turning to `CN1CCCN(C(c2ccccc2)c2ccc(Cl)cc2)CC1.Cl.Cl` (stereo not drawn) [Homochlorcyclizine dihydrochloride], the “Average percent inhibition” value on human KV7.1 is 43.5%.

As for `COC1=C(OC)C(=O)C(CCCCCCCCCCO)=C(C)C1=O` [Idebenone], the inhibition at 10 µM at human KV7.1 was found to be 59%.

As for `Clc1ccc(C(Cn2ccnc2)OCc2c(Cl)cccc2Cl)c(Cl)c1` (stereo not drawn) [Isoconazole], on human KV7.1, the inhibition at 10 µM was determined as 61.2%.

Consider `CC(C)OC(=O)CCC/C=C\C[C@@H]1[C@@H](CC[C@@H](O)CCc2ccccc2)[C@H](O)C[C@@H]1O` [Latanoprost], for which the inhibition at 10 µM at human KV7.1 came to 63.7%.

Turning to `COc1cccc(N(C)C(=S)Oc2ccc3c(c2)CCCC3)n1` [Liranaftate], at human KV7.1, the inhibition at 10 µM stood at 62.8%.

As for `C[C@H](CCC(=O)O)[C@H]1CC[C@H]2[C@@H]3CC[C@@H]4C[C@H](O)CC[C@]4(C)[C@H]3CC[C@]12C` [Lithocholic acid], the inhibition at 10 µM at human KV7.1 is 80.8%.

Consider `Clc1ccc(COC(Cn2ccnc2)c2ccc(Cl)cc2Cl)c(Cl)c1` (stereo not drawn) [Miconazole], for which, at human KV7.1, the inhibition at 10 µM was 79.8%.

For `Clc1ccc(C(c2ccccc2Cl)C(Cl)Cl)cc1` (stereo not drawn) [Mitotane], at human KV7.1, the inhibition at 10 µM stood at 49.5%.

Turning to `COC(=O)C1=C(C)NC(C)=C(C(=O)OCCN(C)Cc2ccccc2)C1c1cccc([N+](=O)[O-])c1` (stereo not drawn) [Nicardipine hydrochloride], the inhibition at 10 µM was 50.7% on human KV7.1 and 123% at Nav1.8 [1]. Besides, the IC50 on Nav1.8 [2] is 0.6 µM.

`COC(=O)C1=C(C#N)NC(C)=C(C(=O)OC(C)C)C1c1cccc([N+](=O)[O-])c1` (stereo not drawn) [Nilvadipine]: on Nav1.8 [1], the inhibition at 10 µM came out at 87.9%. In addition, the IC50 on Nav1.8 [2] amounted to 0.6 µM.

With `CS(=O)(=O)Nc1ccc([N+](=O)[O-])cc1Oc1ccccc1` [Nimesulide], the inhibition at 10 µM at human KV7.1 was determined as 47.9%.

`COCCOC(=O)C1=C(C)NC(C)=C(C(=O)OC(C)C)C1c1cccc([N+](=O)[O-])c1` (stereo not drawn) [Nimodipine]: the inhibition at 10 µM on Nav1.8 [1] was determined as 96.1%. In addition, at Nav1.8 [2], the IC50 stood at 1.2 µM.

Turning to `COC(=O)C1=C(C)NC(C)=C(C(=O)OCC(C)C)C1c1ccccc1[N+](=O)[O-]` (stereo not drawn) [Nisoldipine], on human KV7.1, the inhibition at 10 µM was 48%.

Take `CCOC(=O)C1=C(C)NC(C)=C(C(=O)OC)C1c1cccc([N+](=O)[O-])c1` (stereo not drawn) [Nitrendipine]: the inhibition at 10 µM on human KV7.1 was 46.1%.

With `COc1ccc(C(=O)c2ccccc2)c(O)c1` [Oxybenzone], the inhibition at 10 µM on human KV7.1 came to 57.4%.

For the compound `COc1ccc(Cc2nccc3cc(OC)c(OC)cc23)cc1OC` [Papaverine hydrochloride], the inhibition at 10 µM on human KV7.1 was 45.6%.

For `Fc1ccc([C@@H]2CCNC[C@H]2COc2ccc3c(c2)OCO3)cc1` [Paroxetine Hydrochloride], the inhibition at 10 µM at human KV7.1 stood at 59.9%.

`c1ccc2c(c1)Nc1ccccc1S2` [Phenothiazine]: on human KV7.1, the inhibition at 10 µM was 59.8%.

Consider `CCN1CCN(C(=O)N[C@@H](C(=O)N[C@@H]2C(=O)N3[C@@H]2SC(C)(C)[C@@H]3C(=O)O)c2ccccc2)C(=O)C1=O` [Piperacillin sodium salt], for which the inhibition at 10 µM at human KV7.1 stood at 43.5%.

In the case of `CC(=O)SCC(Cc1ccccc1)C(=O)NCC(=O)OCc1ccccc1` (stereo not drawn) [Racecadotril], the inhibition at 10 µM is 46.4% at human KV7.1 and 94.8% at Nav1.8 [1].

As to `O=C(c1ccc(OCCN2CCCCC2)cc1)c1c(-c2ccc(O)cc2)sc2cc(O)ccc12` [Raloxifene hydrochloride], the inhibition at 10 µM at human KV7.1 stood at 43.3%; at Nav1.8 [1], 88.4%.

In the case of `Clc1ccc(C(Cn2ccnc2)OCc2csc3c(Cl)cccc23)c(Cl)c1` (stereo not drawn) [Sertaconazole nitrate], the inhibition at 10 µM on human KV7.1 was 58.6%.

Regarding `C[C@]12Cc3c[nH]nc3C[C@@H]1CC[C@@H]1[C@@H]2CC[C@@]2(C)[C@H]1CC[C@]2(C)O` [Stanozolol], the inhibition at 10 µM at human KV7.1 was determined as 43.6%.

On to `[H]/N=C(/NCCCCC)N/N=C/c1c[nH]c2ccc(OC)cc12` [Tegaserod maleate], for which, at Nav1.8 [1], the inhibition at 10 µM was 98.3%.

With `CCSc1ccc2c(c1)N(CCCN1CCN(C)CC1)c1ccccc1S2.O=C(O)CC(O)C(=O)O.O=C(O)CC(O)C(=O)O` [Thiethylperazine dimalate], at human KV7.1, the “Average percent inhibition” value came out at 56.9%.

Regarding `C#C[C@]1(O)CC[C@H]2[C@@H]3[C@H](C)CC4=C(CCC(=O)C4)[C@H]3CC[C@@]21C` [Tibolone], on human KV7.1, the inhibition at 10 µM is 87.6%.

Turning to `Clc1ccc(C(Cn2ccnc2)OCc2ccsc2Cl)c(Cl)c1` (stereo not drawn) [Tioconazole], the inhibition at 10 µM at human KV7.1 is 53.5%.

As for `Cc1cccc(N(C)C(=S)Oc2ccc3ccccc3c2)c1` [Tolnaftate], the inhibition at 10 µM on human KV7.1 is 69.4%.

With `CC1(C)O[C@@H]2[C@@H](CO[C@@]3(COS(N)(=O)=O)OC(C)(C)O[C@@H]23)O1` [Topiramate], the inhibition at 10 µM at human KV7.1 was found to be 44.3%.

Take `CCOC1O[C@H]([C@@H](COCc2ccccc2)OCc2ccccc2)[C@H](OCc2ccccc2)[C@H]1O` (stereo partly drawn) [Tribenoside]: the inhibition at 10 µM at human KV7.1 is 48.8%; at Nav1.8 [1] it was 86.2%.

For the compound `CSc1nc2cc(Cl)c(Oc3cccc(Cl)c3Cl)cc2[nH]1` [Triclabendazole], the inhibition at 10 µM at human KV7.1 worked out at 76%.

In the case of `Oc1cc(Cl)ccc1Oc1ccc(Cl)cc1Cl` [Triclosan], the inhibition at 10 µM at human KV7.1 is 74%; on Nav1.8 [1], 87.8%.

Consider `CN1CCN(CCCN2c3ccccc3Sc3ccc(C(F)(F)F)cc32)CC1` [Trifluoperazine dihydrochloride], for which the inhibition at 10 µM at Nav1.8 [1] stood at 79.1%.

On to `CCC(COC(=O)c1cc(OC)c(OC)c(OC)c1)(c1ccccc1)N(C)C` (stereo not drawn) [Trimebutine], for which, at Nav1.8 [1], the inhibition at 10 µM was determined as 88.7%.

Turning to `Cc1c(C)c2c(c(C)c1O)CCC(C)(COc1ccc(CC3SC(=O)NC3=O)cc1)O2` (stereo not drawn) [Troglitazone], the inhibition at 10 µM on human KV7.1 worked out at 73%.

Turning to `CCOC(=O)C1=C[C@]2(CC)CCCN3CCc4c(n1c1ccccc41)[C@@H]32` [Vinpocetine], the inhibition at 10 µM on Nav1.8 [1] came to 93.4%.
